Data on six molecules can be found in publication PMC9421654, “Discovery of Substituted Di(pyridin-2-yl)-1,2,4-thiadiazol-5-amines as Novel Macrofilaricidal Compounds for the Treatment of Human Filarial Infections” (Journal of Medicinal Chemistry, 2022).

Data set [1] can be described thus: Kinetic solubility measurement. It counts as physicochemical. Conditions: 10 mM DMSO stock solutions. An outline of the steps: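 Human and rat liver microsomes (0.3 mg/mL) with 1 mM NADPH and 3µM substrate, 30 minutes at 37 °C in pH 7.4 phosphate/MgCl2, triplicate; LC-MS/MS percentage remaining. LogD: octanol/aqueous buffer (pH 7.4, 2.2, 6.8, 5), 24 h shaking at room temperature. Kinetic solubility: 200 µM, 2% DMSO, 24 h, filtered.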

A short description of data set [2]: Liver S9 metabolic stability assay, rat. The data set is classed as in vitro ADME. Conditions: 3 μM, 60 min. An outline of the steps:
(§1)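 Rat and human liver S9 (0.75 and 1.2 mg/ml) with 1 mM NADPH, 0.5 mM UDPGA, 2.5 mM GSH, 0.05 mg/ml PAPS, 3µM substrate, 60 min at 37 °C in Tris/MgCl2 pH 7.4. Mouse microsomes 0.3 mg/mL, 1 mM NADPH, 3µM, 30 min, phosphate pH 7.4. LC-MS/MS, % remaining, triplicate.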

A short description of data set [3]: Liver S9 metabolic stability assay, human. The data set is classed as in vitro ADME. As to conditions: 3 μM, 60 min. In outline:
as §1

Data set [4] addresses T1, hERG potassium channels (KCNH2, expressed in HEK293 cells) (Homo sapiens, UniProt Q12809).
T1 construct: expressed in transfected cells
The data set is described as follows: hERG inhibition. It counts as cell-based. A general note: The hERG channel carries a current that helps repolarise heart muscle cells.

The nature of another data set: Mouse pharmacokinetics. It counts as in vivo. As to conditions: male CD-1 mouse, PO 30 mg/kg suspension. From the text: All animal experiments were approved by the Institutional Animal Care and Use Committee (IACUC) of Bristol Myers Squibb.

Molecules are shown by their SMILES. In brackets after ≈: the same amount, converted by molar mass. Several values for one entry are separate records, joined by “and”; a condition that tells them apart may be missing. Equal entries are not always repeated. Where two headings read alike, the source gives them in different places.

T1 sequence (Q12809 whole entry): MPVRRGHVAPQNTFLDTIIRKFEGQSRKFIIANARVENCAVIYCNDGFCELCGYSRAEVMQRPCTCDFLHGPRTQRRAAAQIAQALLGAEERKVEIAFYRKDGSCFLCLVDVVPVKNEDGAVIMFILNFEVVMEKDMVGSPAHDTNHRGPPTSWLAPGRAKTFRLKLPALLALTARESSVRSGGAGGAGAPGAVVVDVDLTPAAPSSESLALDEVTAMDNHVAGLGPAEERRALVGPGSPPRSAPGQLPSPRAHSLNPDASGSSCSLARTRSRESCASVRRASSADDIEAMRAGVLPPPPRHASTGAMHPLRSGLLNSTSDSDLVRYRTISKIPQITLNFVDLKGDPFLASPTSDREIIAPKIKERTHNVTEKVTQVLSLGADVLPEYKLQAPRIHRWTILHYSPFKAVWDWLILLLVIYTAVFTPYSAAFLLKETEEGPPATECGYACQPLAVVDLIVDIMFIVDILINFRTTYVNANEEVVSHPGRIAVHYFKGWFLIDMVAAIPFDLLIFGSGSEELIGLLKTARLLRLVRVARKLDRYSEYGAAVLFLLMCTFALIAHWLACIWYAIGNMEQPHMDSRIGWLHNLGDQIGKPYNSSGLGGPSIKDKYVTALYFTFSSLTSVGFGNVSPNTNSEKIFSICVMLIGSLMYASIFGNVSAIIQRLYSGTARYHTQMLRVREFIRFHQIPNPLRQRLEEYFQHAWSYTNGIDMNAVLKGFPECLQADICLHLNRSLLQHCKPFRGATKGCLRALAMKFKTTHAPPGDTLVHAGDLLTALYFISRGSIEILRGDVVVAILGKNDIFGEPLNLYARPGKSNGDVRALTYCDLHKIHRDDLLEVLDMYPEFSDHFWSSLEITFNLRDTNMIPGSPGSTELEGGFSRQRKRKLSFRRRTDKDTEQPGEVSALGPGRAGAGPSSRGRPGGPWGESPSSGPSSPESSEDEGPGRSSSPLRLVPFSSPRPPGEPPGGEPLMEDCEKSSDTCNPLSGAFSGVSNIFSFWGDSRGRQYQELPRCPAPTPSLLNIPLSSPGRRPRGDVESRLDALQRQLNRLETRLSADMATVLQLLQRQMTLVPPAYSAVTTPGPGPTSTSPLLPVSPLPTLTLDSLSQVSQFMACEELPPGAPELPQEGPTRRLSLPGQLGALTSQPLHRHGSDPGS

For the molecule `Cc1cccnc1Nc1nc(-c2ccc(OC3CC4(C3)CN(C3CC3)C4)cn2)ns1` [Compound 12, 3-[5-[(2-Cyclopropyl-2-azaspiro[3.3]heptan-6-yl)oxy]-2-pyridyl]-N-(3-methyl-2-pyridyl)-1,2,4-thiadiazol-5-mine], the solubility (kinetic) – broadly, the concentration staying in solution when a stock, usually in DMSO, is diluted into the medium – at 24 h in data set [1] was determined as 13.1 µM (≈ 5.5 µg/mL). Moreover, the “Rat S9 metabolic stability” value in data set [2] stood at 53 % remaining. In addition, the “Human S9 metabolic stability” value in data set [3] was 58 % remaining. In addition, the results for the IC50 in data set [4] and in data set [4] (supplement) were 0.203 µM and 0.2 µM, respectively.
As to `Cc1cccnc1Nc1nc(-c2ccc(OC3CCN(C4CC4)CC3)cn2)ns1` [Compound 19, 3-[5-[(1-Cyclopropyl-4-piperidyl)oxy]-2-pyridyl]-N-(3-methyl-2-pyridyl)-1,2,4-thiadiazol-5-amine], the kinetic solubility at 24 h in data set [1] came out at 3.05 µM (≈ 1.25 µg/mL). Further, in data set [2], the “Rat S9 metabolic stability” value came to 76 % remaining. Moreover, in data set [3], the “Human S9 metabolic stability” value is recorded as 83 % remaining. In the data set “Mouse pharmacokinetics”, the AUC(0-inf) – broadly, total exposure, with the tail of the curve extrapolated – amounted to 6.23 ± 6.16 µM·h; the Cmax – broadly, the peak of the concentration-time curve – was found to be 2080 ± 1220 nM; the Tmax (as a rule, the time at which the peak concentration occurs) was 0.5 ± 0.0 h. Besides, the IC50 (usually the midpoint of a concentration-inhibition curve) in data set [4] was 3.46 µM.
In turn, `CC(C)Oc1ccc(-c2nsc(Nc3ncccc3C(C)C)n2)nc1` [Compound 25, 3-(5-Isopropoxy-2-pyridyl)-N-(3-isopropyl-2-pyridyl)-1,2,4-thiadiazol-5-amine] gave a solubility (kinetic) at 24 h in data set [1] of 2.58 µM (≈ 0.917 µg/mL). For the same molecule, the “Rat S9 metabolic stability” value in data set [2] is given as 82 % remaining. Further, the “Human S9 metabolic stability” value in data set [3] was 99 % remaining. In the data set “Mouse pharmacokinetics”, the “AUC(0-inf)” value was determined as 20.0 ± 9.9 µM·h, the concentration peaked (Cmax) at 2050 ± 270 nM and the Tmax came out at 2.4 ± 3.8 h.
For `Cc1ccnc(-c2nsc(Nc3ncccc3C(F)(F)F)n2)c1` [Compound 26, 3-(4-Methylpyridin-2-yl)-N-(3-(trifluoromethyl)pyridin-2-yl)-1,2,4-thiadiazol-5-amine], the solubility (kinetic) at 24 h in data set [1] came out at 0.9 µM (≈ 0.304 µg/mL). The “Rat S9 metabolic stability” value in data set [2] worked out at 61 % remaining. Also, the “Human S9 metabolic stability” value in data set [3] was found to be 56 % remaining. Besides, the IC50 in data set [4] (supplement) was more than 30 µM.
The corresponding values for `CNc1cccnc1Nc1nc(-c2ccc(OC(C)C)cn2)ns1` [Compound 30] are 1.9 µM (≈ 0.651 µg/mL), 73 % remaining, 86 % remaining and 16 µM.
With `CC(C)c1ccnc(-c2nsc(Nc3cc(C(F)(F)F)ccn3)n2)c1` [Compound 35, 3-(4-Isopropylpyridin-2-yl)-N-(4-(trifluoromethyl)pyridin-2-yl)-1,2,4-thiadiazol-5-amine], the kinetic solubility at 24 h in data set [1] is less than 1 µM. Further, the “Rat S9 metabolic stability” value in data set [2] is listed as 45 % remaining. Also, in data set [3], the “Human S9 metabolic stability” value turned out to be 65 % remaining. Further, in the data set “Mouse pharmacokinetics”, the highest level (Cmax) was 210 ± 20 nM and the Tmax was determined as 1.8 ± 1.7 h. Moreover, the “AUC(0-inf)” value in “Mouse pharmacokinetics” (30 mg/kg) is 1.7 µM·h and 1.73 ± 0.59 µM·h.
